Measured values: the supplement of paper PMC10307832

Legend:
Test in all cases: relative viability (nuclei count vs DMSO), 5 days (fraction); higher = more cells survive
BAM7 + AZD7762 = compound: CCOC1=CC=CC=C1N=NC2=C(NN(C2=O)C3=NC(=CS3)C4=CC=CC=C4)C [BAM7] + NC(=O)Nc1cc(-c2cccc(F)c2)sc1C(=O)N[C@H]1CCCNC1 [AZD7762] (partner 0.2 µM)
How it was run: (§1)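 After 5 days of treatment, lung cancer cells in 1536-well plates were fixed and stained in a single step (final 0.05% Triton X-100, 1% formaldehyde, 1 ug/ml Hoechst) and their nuclei counted on 4× images. Treatment had been applied by pin tool the day after seeding as one drug alone or as a fixed anchor-drug dose with five library-drug doses (not always all listed) in √10 steps. Relative viability is the nuclei count of treated wells divided by that of vehicle wells, and values are medians of duplicate plates.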

[1] = compound: CCn1c(-c2nonc2N)nc2c(C#CC(C)(C)O)ncc(OC[C@H]3CCCNC3)c21 + Nc1ncn([C@H]2C[C@H](O)[C@@H](CO)O2)c(=O)n1 [Decitabine] (partner 2 µM)
How it was run: as §1

[2] = compound: CCn1c(-c2nonc2N)nc2c(C#CC(C)(C)O)ncc(OC[C@H]3CCCNC3)c21 + C[C@@H](Oc1cc(-c2cnn(C3CCNCC3)c2)cnc1N)c1c(Cl)ccc(F)c1Cl [Crizotinib] (partner 1 µM)
How it was run: as §1

BAM7 + Palbociclib = compound: CCOC1=CC=CC=C1N=NC2=C(NN(C2=O)C3=NC(=CS3)C4=CC=CC=C4)C [BAM7] + CC(=O)c1c(C)c2cnc(Nc3ccc(N4CCNCC4)cn3)nc2n(C2CCCC2)c1=O [Palbociclib] (partner 0.5 µM)
How it was run: as §1

Row | Cell Line | relative viability (BAM7 + AZD7762; first compound 0.5 µM) | relative viability (BAM7 + AZD7762; first compound 5 µM) | relative viability (BAM7 + AZD7762; first compound 15.81 µM) | relative viability (BAM7 + AZD7762; first compound 50 µM) | relative viability ([1]; first compound 0.01 µM) | relative viability ([1]; first compound 0.03162 µM) | relative viability ([1]; first compound 0.1 µM) | relative viability ([1]; first compound 0.3162 µM) | relative viability ([1]; first compound 1 µM) | relative viability ([2]; first compound 0.01 µM) | relative viability ([2]; first compound 0.03162 µM) | relative viability ([2]; first compound 0.1 µM) | relative viability ([2]; first compound 0.3162 µM) | relative viability ([2]; first compound 1 µM) | relative viability (BAM7 + Palbociclib; first compound 0.5 µM) | relative viability (BAM7 + Palbociclib; first compound 5 µM) | relative viability (BAM7 + Palbociclib; first compound 15.81 µM) | relative viability (BAM7 + Palbociclib; first compound 50 µM)
1 | ChaGo-K-1 | 0.831 | 0.891 | 0.843 | 0.808 | 0.483 | 0.5 | 0.559 | 0.487 | 0.533 | 1.05 | 1.14 | 1.13 | 1.05 | 1.19 | 1.02 | 0.965 | 0.819 | 0.902
2 | NCI-H650 | 0.913 | 0.992 | 1.01 | 1.15 | 0.323 | 0.348 | 0.32 | 0.304 | 0.29 | 0.561 | 0.697 | 0.683 | 0.68 | 0.666 | 0.324 | 0.32 | 0.272 | 0.318
3 | LK-2 | 0.407 | 0.472 | 0.515 | 0.404 | 0.267 | 0.302 | 0.294 | 0.312 | 0.307 | 0.247 | 0.181 | 0.215 | 0.24 | 0.232 | 0.662 | 0.648 | 0.741 | 0.598
4 | 201T | 0.705 | 0.688 | 0.715 | 0.678 | 0.879 | 0.822 | 0.888 | 0.837 | 0.866 | 1.01 | 1.03 | 1.04 | 1 | 1.03 | 0.358 | 0.336 | 0.307 | 0.335
